# According to patent US20250099446A1, “HYBRID PHARMACEUTICAL COMPOSITION OBTAINED BY CONJUGATION OF A PROTON PUMP INHIBITOR AND A CARBON ANHYDRASE INHIBITOR” (EXO LAB ITALIA, S.r.l., priority 2022, published 2025):
# Columns and labels:
# Test in all cases: Stopped-Flow kinetic assay, carbonic anhydrase inhibition
# CA IX = CA IX (Homo sapiens, UniProt Q16790)
# Description: (§1) All hybrid compounds and individual CAI moieties with OH/SH group were tested for inhibition of off-target isoforms CA I and II and CAI IV, IX and XII by a Stopped-Flow kinetic assay.
# CA XII = CA XII (Homo sapiens, UniProt O43570)
# Description: as §1
# CA I = CA I (Homo sapiens, UniProt P00915)
# Description: as §1
# CA II = CA II (Homo sapiens, UniProt P00918)
# Description: as §1
# CA IV = CA IV (Homo sapiens, UniProt P22748)
# Chain of CA IV (P22748 19-284): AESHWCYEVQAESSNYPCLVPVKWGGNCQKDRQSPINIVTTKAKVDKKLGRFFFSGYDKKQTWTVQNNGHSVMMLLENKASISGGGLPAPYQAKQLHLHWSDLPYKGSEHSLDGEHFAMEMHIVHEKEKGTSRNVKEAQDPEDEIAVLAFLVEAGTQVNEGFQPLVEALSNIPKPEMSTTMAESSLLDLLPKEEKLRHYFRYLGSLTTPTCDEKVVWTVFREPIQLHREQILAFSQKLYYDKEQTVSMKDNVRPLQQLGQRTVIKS
# Description: as §1
# Chain of CA XII (O43570 25-354): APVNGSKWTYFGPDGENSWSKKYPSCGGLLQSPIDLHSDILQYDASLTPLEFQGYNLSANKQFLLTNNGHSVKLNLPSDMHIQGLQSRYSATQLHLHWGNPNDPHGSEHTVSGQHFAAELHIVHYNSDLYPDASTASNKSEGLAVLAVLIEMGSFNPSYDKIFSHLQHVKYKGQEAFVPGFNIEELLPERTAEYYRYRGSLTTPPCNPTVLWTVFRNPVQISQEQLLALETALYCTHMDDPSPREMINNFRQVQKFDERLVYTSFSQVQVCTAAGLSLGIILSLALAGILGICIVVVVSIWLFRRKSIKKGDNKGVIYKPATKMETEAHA
# Chain of CA I (P00915 whole entry): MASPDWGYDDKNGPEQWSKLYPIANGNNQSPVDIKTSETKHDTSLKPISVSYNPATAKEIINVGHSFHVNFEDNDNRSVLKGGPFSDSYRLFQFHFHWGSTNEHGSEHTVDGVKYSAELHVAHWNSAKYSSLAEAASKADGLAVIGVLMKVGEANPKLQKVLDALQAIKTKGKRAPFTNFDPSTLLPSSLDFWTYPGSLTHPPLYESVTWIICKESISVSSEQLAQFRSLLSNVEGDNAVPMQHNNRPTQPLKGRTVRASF
Compound,Ki (CA IX) [nM],Ki (CA XII) [nM],Ki (CA I) [µM],Ki (CA II) [µM],Ki (CA IV) [nM]
"Cc1c(OCC(F)(F)F)ccnc1C[S+]([O-])c1nc2ccccc2n1C(=O)OCCOc1ccc2oc(=O)ccc2c1 (stereo not shown) [Compound A1, 2-((2-Osso-2H-cromen-6-il)ossi)etil 2-(((3-metil-4-(2,2,2-trifluoroetossi)piridin-2-il)metil)sulfinil)-1H-benzo[d]imidazolo-1 carbossilato]",79.2,53,> 10,> 10,14.4
"Cc1c(OCC(F)(F)F)ccnc1C[S+]([O-])c1nc2ccccc2n1C(=O)OCCOc1ccc2ccc(=O)oc2c1 (stereo not shown) [Compound A2, 2-((2-Oxo-2H-chromen-7-yl)oxy)ethyl 2-(((3-methyl-4-(2,2,2-trifluoroethoxy)pyridin-2-yl)methyl)sulfinyl)-1H-benzo[d]imidazole-1 carboxylate]",97.2,60.3,> 10,> 10,10.3
Cc1c(OCC(F)(F)F)ccnc1C[S+]([O-])c1nc2ccccc2n1C(=O)OCCCOc1ccc2oc(=O)ccc2c1 (stereo not shown) [Compound A3],41.6,8.9,> 10,> 10,6.4
Cc1c(OCC(F)(F)F)ccnc1C[S+]([O-])c1nc2ccccc2n1C(=O)OCCCOc1ccc2ccc(=O)oc2c1 (stereo not shown) [Compound A4],47,20.6,> 10,> 10,7.7
"O=c1ccc2cc(OCCO)ccc2o1 [Compound G1A, 6-(2-hydroxyethoxy)-2H-chromen-2-one]",306,,> 10,> 10,
"O=c1ccc2ccc(OCCO)cc2o1 [Compound G1B, 7-(2-idrossietossi)-2H-cromen-2-one]",334,,,> 10,
